Like-named read-outs stand apart in the source and are kept apart here. *1 amine or outer side, *2 acyl side, *3 side chain or, on linkers, in order; H or OH if unused. Where a SMILES comes first, the peptide text is derived from it. Bridges are numbered along the chain shown (N, C = ends). Roman numbers before positions name the chains, in order. [ ]: non-standard residue; d: D form. ξ: configuration not given here. Phe(4-NH2) = Nc1ccc(C[C@H](N)C(=O)O)cc1; NMehCys = CN[C@@H](CCS)C(=O)O; Thr(3ξ) = CC(O)[C@H](N)C(=O)O; Dap = NC[C@H](N)C(=O)O; X1 = O=C(C[*:1])[*:2]
Key:
SSTRs, NCI-H69 membranes = assay: [125I]SST-14 binding to NCI-H69 cell membranes (SSTR affinity); parameters: species or system human; conditions: inhibition of [125I]SST-14 binding, two-site fit
Procedure: (§1) [^125I-Tyr^11] somatostatin-14 ([^125I]SST-14) was obtained from Amersham. Unlabeled somatostatin-14 was purchased either from BACHEM (Torrance, Calif.) or from Sigma Chemical Co. (St. Louis, Mo.). Protease inhibitors, leupeptin, aprotinin, bacitracin, and benzamidine and other reagents were obtained from Sigma. Protease inhibitors were prepared in dimethylsulfoxide (DMSO) at a concentration 500×higher than the final assay concentration. The prepared protease solution was stored at −20° C. and diluted with the buffer solution before use.
Membrane preparations used in these studies were prepared from two commercially available tumor cell lines, the human small cell lung cancer cell line, NCI-H69, and the rat pancreatic tumor cell line, AR42J, obtained from American Type Culture Collection (ATCC) (Manassas, Va.). NCI-H69 cells were maintained by serial passage in RPMI 1640 with 10% fetal calf serum. AR42J cells were maintained in F-12K medium containing 20% fetal calf serum. Cells in culture flasks were incubated at 37° C. with 5% CO2 in air atmosphere following the recommendations of the “Product Sheet” from ATCC.
Cultured cells were first detached from plates with phosphate-buffered saline, pH 7.4, containing 2 mM EDTA, and centrifuged at 1,500×g for 10 min. Cells were then resuspended in 5-10 mL of the homogenization buffer (1 mM sodium bicarbonate, pH 7.4, 1 mM EDTA, 1 mM EGTA, 2.5 mM DTT, 5 μg/mL leupeptin, 5 μg/mL aprotinin, 100 μg/mL bacitracin, 100 μg/mL benzamidine) for 10 min on ice. The cells were lysed for 30 sec twice in a polytron with a setting at 5. The lysate was centrifuged at 1,000×g for 10 min at 4° C. The supernatant was centrifuged at 40,000×g for 20 min at 4° C. This step was repeated twice with the homogenization buffer in the absence of protease inhibitors. The pellet was then resuspended at 1-5 mg membrane protein/mL in 25 mM Tris, pH 7.4 without the addition of protease inhibitors and the membranes were stored at −80° C. before use. Membrane protein concentration was determined spectroscopically using the bicinchonic acid (BCA) protein assay kit (Pierce Chemical Inc. (Rockford, Ill.).
All [^125I]SST-14 binding assays were performed in 0.5 mL binding buffer containing 50 mM HEPES, pH 7.5, 10 mM MgCl2, 0.25% BSA (w/v) containing protease inhibitors (same as above) and incubated at 37° C. for 45 minutes. After incubation, samples were kept at 4° C. and rapidly filtered under vacuum through a Whatman GF/B glass fiber filter with a 12-well harvester (Skatron Instruments Inc., Sterling, Va.). The filter was washed for 9 seconds with cold 50 mM HEPES, pH 7.5, 10 mM MgCl2, 0.25% BSA (w/v). Thirty-five […] of [^125I]SST-14 from Amersham was used in each tube. Peptides were solubilized in DMSO and serially diluted with DMSO. Five μL of peptide in DMSO was used to obtain the final concentration. DMSO (5 μL) was added to the tube without the addition of any peptide or unlabeled SST-14, so that each tube contained 1% DMSO. Non-specific binding was defined as the binding of [^125I]SST-14 which was not displaceable with an excess of unlabeled SST-14 at a concentration of 1×10^−6 M. The bound [^125I]SST-14 without or with excess unlabeled SST-14 (1×10^−6 M) was defined as total binding and nonspecific binding, respectively. The difference between total and nonspecific binding was defined as specific binding. The percent inhibition (% Inh) by peptide was expressed as
% Inh=(total binding−total binding in the presence of peptide)/specific binding×100%
Inclusion of protease inhibitors in homogenizing medium as well as assay buffer is essential to maintain the integrity of both [^125I]SST-14 and somatostatin analogs for the receptor binding assay and to obtain optimal specific binding. The highest specific binding was observed when MgCl2 (10 mM) was included. Membranes were finally resuspended in a sodium-free medium and receptor binding assays were performed in the absence of sodium ions. […]

AR42J tumor xenografts = assay: Biodistribution of 99mTc-labeled compounds in nude mice with AR42J tumor xenografts; type: in vivo; conditions: 99mTc-labeled compound, 90 minutes post-injection; for TUMOR: i.v.; for T:B: tumor to blood ratio; for T:M: tumor to muscle ratio
Procedure: (§2) Rat pancreatic AR42J cells (ATCC, Rockville, Md., USA) were grown in Modified Ham's F12K medium (Cat. No. N-3520, Sigma, St. Louis, Mo., USA) containing 20% fetal bovine serum (FCS) (Cat. No. 1224, Lot No. 9702058, Sigma, St. Louis, Mo., USA) under sterile conditions in 95% humidity and 5% CO2. At a density of approximately 10×10^6 cells per T150 flask, the cells were harvested with trypsin and collected by centrifugation at 2400 rpm (800×g) for 15 minutes in a benchtop centrifuge (IEC Centra-8 tabletop centrifuge, International Equipment Company, Needham, Mass., USA). The cells were resuspended in medium containing 20% FCS for implantation.
(§3) Six female nude mice (CrlLNU/NU-nuBR, 6-8 weeks old) were injected subcutaneously into the right flank with tumor cells (2×10^7/100 μL) in 20% matrigel (Collaborative Biomedical Products, Chicago, Ill., USA). Fourteen days after inoculation tumors were visible in all animals. Three weeks after inoculation, tumors were aseptically dissected, minced and implanted into 60 nude mice using a trochar. The tumor xenografts from the second passage were used for biodistribution studies.
(§4) A dose of approximately 50-100 μCi ^99mTc-labeled compound/mouse was injected intravenously in a total volume of 100 μL. Mice were sacrificed 90 minutes post-injection by decapitation and the trunk blood was collected. Tumors (1 to 3 per mouse), liver, gastrointestinal tract, kidneys, and samples of muscle from both legs (quadriceps femoralis) were collected, weighed, and counted for radioactivity.

[1] = as above; type: in vivo; conditions: nude, mouse, iv, total radioactivity, 99mTc-labeled compound, 90 minutes post-injection; for tissue uptake dose at 1.5 h: i.v.
Procedure: as §2, §3, §4

[2] = tested on: SSTRs, AR42J cell membranes; assay: [125I]SST-14 binding to AR42J cell membranes (SSTR affinity); parameters: species or system rat; conditions: inhibition of [125I]SST-14 binding; two-site fit; read-out: IC50 Values for AR42J Cell Membranes (first value)
Procedure: as §1
Membrane preparations used in these studies were prepared from two commercially available tumor cell lines, the human small cell lung cancer cell line, NCI-H69, and the rat pancreatic tumor cell line, AR42J, obtained from American Type Culture Collection (ATCC) (Manassas, Va.). […]
Cultured cells were first detached from plates with phosphate-buffered saline, pH 7.4, containing 2 mM EDTA, and centrifuged at 1,500×g for 10 min. […] Membrane protein concentration was determined spectroscopically using the bicinchonic acid (BCA) protein assay kit (Pierce Chemical Inc. (Rockford, Ill.).
All [^125I]SST-14 binding assays were performed in 0.5 mL binding buffer containing 50 mM HEPES, pH 7.5, 10 mM MgCl2, 0.25% BSA (w/v) containing protease inhibitors (same as above) and incubated at 37° C. for 45 minutes. […] The percent inhibition (% Inh) by peptide was expressed as […]

[3] = patient, four cycles of treatment; cited from earlier work
[4] = 24 hours post-injection, cited from earlier work
[5] = read-out: IC50 Values for Uncomplexed Compounds, NCI-H69 (first value)
[6] = read-out: IC50 Values for Uncomplexed Compounds, NCI-H69 (second value)

Molecule	IC50 (SSTRs, NCI-H69 membranes; [5]) [nM]	IC50 (SSTRs, NCI-H69 membranes; [6]) [nM]	TUMOR (AR42J tumor xenografts) [%ID/g]	T:B (AR42J tumor xenografts)	T:M (AR42J tumor xenografts)	further results
C[C@@H](O)[C@@H]1NC(=O)[C@H](CCCCN)NC(=O)[C@@H](Cc2c[nH]c3ccccc23)NC(=O)[C@H](Cc2ccc(O)cc2)NC(=O)[C@H](CCSCC(=O)NC[C@H](N)C(=O)N[C@@H](CCCCN)C(=O)N[C@@H](CS)C(=O)N[C@H](CO)[C@@H](C)O)N(C)C(=O)[C@H](Cc2ccccc2)NC1=O [cyclo-Tyr-D-Trp-Lys-Thr-Phe-(N—CH3)Hcy(CH2 CO-β-Dap-Lys-Cys-Thr(ol))]	0.346	234	10.2	48	104	–
C[C@@H](O)[C@@H]1NC(=O)[C@H](CCCCN)NC(=O)[C@@H](Cc2c[nH]c3ccccc23)NC(=O)[C@H](Cc2ccc(O)cc2)NC(=O)[C@H](CCSCC(=O)NC[C@H](N)C(=O)N[C@@H](CCCN)C(=O)N[C@@H](CS)C(=O)N[C@H](CO)[C@@H](C)O)N(C)C(=O)[C@H](Cc2ccccc2)NC1=O [cyclo-Tyr-D-Trp-Lys-Thr-Phe-(N—CH3)Hcy(CH2 CO-β-Dap-Orn-Cys-Thr(ol))]	0.505	744	10.3	24	96	–
C[C@@H](O)[C@@H]1NC(=O)[C@H](CCCCN)NC(=O)[C@@H](Cc2c[nH]c3ccccc23)NC(=O)[C@H](Cc2ccc(O)cc2)NC(=O)[C@H](CCSCC(=O)NC[C@H](N)C(=O)N[C@@H](Cc2ccc(N)cc2)C(=O)N[C@@H](CS)C(=O)N[C@H](CO)[C@@H](C)O)N(C)C(=O)[C@H](Cc2ccccc2)NC1=O [cyclo-Tyr-D-Trp-Lys-Thr-Phe-(N—CH3)Hcy(CH2 CO-β-Dap-Phe(4-NH2)-Cys-Thr(ol))]	0.501	< 0.001	31.8	81	188	–
C[C@@H](O)[C@@H]1NC(=O)[C@H](CCCCN)NC(=O)[C@@H](Cc2c[nH]c3ccccc23)NC(=O)[C@H](Cc2ccc(O)cc2)NC(=O)[C@H](CCSCC(=O)NC[C@H](N)C(=O)N[C@@H](CO)C(=O)N[C@@H](CS)C(=O)N[C@H](CO)[C@@H](C)O)N(C)C(=O)[C@H](Cc2ccccc2)NC1=O [cyclo-Tyr-D-Trp-Lys-Thr-Phe-(N—CH3)Hcy(CH2 CO-β-Dap-Ser-Cys-Thr(ol))]	1.57	< 0.001	12.6	31	144	–
CC(O)[C@H](NC(=O)[C@H](CS)NC(=O)[C@H](Cc1ccc(N)cc1)NC(=O)[C@@H](N)CNC(=O)CSCC[C@H]1C(=O)N[C@@H](Cc2ccc(O)cc2)C(=O)N[C@H](Cc2c[nH]c3ccccc23)C(=O)N[C@@H](CCCCN)C(=O)N[C@@H](C(C)O)C(=O)N[C@@H](Cc2ccccc2)C(=O)N1C)C(=O)N[C@@H](CO)C(=O)O (stereo partly drawn) [cyclo-Tyr-D-Trp-Lys-Thr-Phe-(N—CH3)Hcy(CH2CO-β-Dap-Phe(4—NH2)-Cys-Thr-Ser)] (I: cyclo(F[NMehCys]Y[dW]K[Thr(3ξ)]) / II: H-[Dap][Phe(4-NH2)]C[Thr(3ξ)]S-OH; linker I:2-II:1 via X1)	0.201	8.91	24.7	29	127	tissue uptake dose at 1.5 h ([1]; gastrointestinal tract, read-out: GI): 8 %ID; tissue uptake at 1.5 h ([1]; kidneys): 4.8 %ID/g; tissue uptake dose at 1.5 h ([1]; spleen, read-out: Spleen): 0.21 %ID; dose excreted at 1.5 h ([1]; urine): 59%; IC50 [2]: 0.433 nM
C[C@@H](O)[C@@H]1NC(=O)[C@H](CCCCN)NC(=O)[C@@H](Cc2c[nH]c3ccccc23)NC(=O)[C@H](Cc2ccc(O)cc2)NC(=O)[C@H](CCSCC(=O)NC[C@H](N)C(=O)N[C@@H](CCN)C(=O)N[C@@H](CS)C(=O)NC(CO)CO)N(C)C(=O)[C@H](Cc2ccccc2)NC1=O [cyclo-Tyr-D-Try-Lys-Thr-Phe-(N—CH3)Hcy(CH2 CO-β-Dap-Dab-Cys-Ser(ol))]	1.08	–	10.8	30	89	–
^90Y-DOTA-lanreotide	–	–	–	–	–	90Y kidney doses [3]: 1.98-2.43 mGy/MBq; spleen doses [3]: 1.68-3.35 mGy/MBq
^111In-DOTA-lanreotide	–	–	–	–	–	retention in human liver [4]: about 3.2 % injected dose; retention in kidney ([4]; human): about 2.5 % injected dose; retention in spleen ([4]; human): about 1.2 % injected dose
